Results reported in the supplement of paper PMC10307832.

How the values were obtained:
Assay in all cases: relative viability (nuclei count vs DMSO), 5 days (fraction); higher = more cells survive
SK-MES-1 = system: SK-MES-1
Outline: (§1)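 Lung cancer cell lines, seeded in 1536-well plates, were treated the following day by pin tool with a single drug or with five library-drug doses (not always all listed) in √10 steps on top of a fixed anchor-drug dose. Cells were fixed and nuclei stained in one step after 5 days, and nuclei were counted. Relative viability is the nuclei count for treated wells divided by that for vehicle wells, reported as medians of duplicate plates.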

RERF-LC-KJ = system: RERF-LC-KJ
Outline: as §1

NCI-H1792 = system: NCI-H1792
Outline: as §1

EPLC-272H = system: EPLC-272H
Outline: as §1

NCI-H596 = system: NCI-H596
Outline: as §1

HCC-15 = system: HCC-15
Outline: as §1

HCC-78 = system: HCC-78
Outline: as §1

NCI-H647 = system: NCI-H647
Outline: as §1

COR-L 105 = system: COR-L 105
Outline: as §1

LCLC-97TM1 = system: LCLC-97TM1
Outline: as §1

SW 1573 = system: SW 1573
Outline: as §1

NCI-H1395 = system: NCI-H1395
Outline: as §1

NCI-H2009 = system: NCI-H2009
Outline: as §1

HCC-44 = system: HCC-44
Outline: as §1

HCC-366 = system: HCC-366
Outline: as §1

NCI-H1993 = system: NCI-H1993
Outline: as §1

HCC-827 = system: HCC-827
Outline: as §1

Oc1nc(-c2ccc(C(F)(F)F)cc2)nc2c1CSCC2 [XAV939] + CC1(C)CCC(c2ccc(Cl)cc2)=C(CN2CCN(c3ccc(C(=O)NS(=O)(=O)c4ccc(N[C@H](CCN5CCOCC5)CSc5ccccc5)c(S(=O)(=O)C(F)(F)F)c4)cc3)CC2)C1 [Navitoclax] (partner 0.5 µM)
relative viability (SK-MES-1; first compound 0.08 µM): 1.21
relative viability (SK-MES-1; first compound 0.253 µM): 1.12
relative viability (SK-MES-1; first compound 0.8 µM): 1.12
relative viability (SK-MES-1; first compound 2.53 µM): 1.14
relative viability (RERF-LC-KJ; first compound 0.08 µM): 0.905
relative viability (RERF-LC-KJ; first compound 0.253 µM): 0.999
relative viability (RERF-LC-KJ; first compound 0.8 µM): 0.804
relative viability (RERF-LC-KJ; first compound 2.53 µM): 0.452
relative viability (NCI-H1792; first compound 0.08 µM): 0.595
relative viability (NCI-H1792; first compound 0.253 µM): 0.589
relative viability (NCI-H1792; first compound 0.8 µM): 0.601
relative viability (NCI-H1792; first compound 2.53 µM): 0.572
relative viability (EPLC-272H; first compound 0.08 µM): 1.18
relative viability (EPLC-272H; first compound 0.253 µM): 1.08
relative viability (EPLC-272H; first compound 0.8 µM): 1.19
relative viability (EPLC-272H; first compound 2.53 µM): 1.11
relative viability (NCI-H596; first compound 0.08 µM): 0.887
relative viability (NCI-H596; first compound 0.253 µM): 1.09
relative viability (NCI-H596; first compound 0.8 µM): 0.901
relative viability (NCI-H596; first compound 2.53 µM): 0.756
relative viability (HCC-15; first compound 0.08 µM): 0.719
relative viability (HCC-15; first compound 0.253 µM): 0.612
relative viability (HCC-15; first compound 0.8 µM): 0.678
relative viability (HCC-15; first compound 2.53 µM): 0.684
relative viability (HCC-78; first compound 0.08 µM): 0.842
relative viability (HCC-78; first compound 0.253 µM): 0.736
relative viability (HCC-78; first compound 0.8 µM): 0.825
relative viability (HCC-78; first compound 2.53 µM): 0.613
relative viability (NCI-H647; first compound 0.08 µM): 1.18
relative viability (NCI-H647; first compound 0.253 µM): 0.94
relative viability (NCI-H647; first compound 0.8 µM): 0.881
relative viability (NCI-H647; first compound 2.53 µM): 0.877
relative viability (COR-L 105; first compound 0.08 µM): 0.754
relative viability (COR-L 105; first compound 0.253 µM): 0.62
relative viability (COR-L 105; first compound 0.8 µM): 0.637
relative viability (COR-L 105; first compound 2.53 µM): 0.458
relative viability (LCLC-97TM1; first compound 0.08 µM): 0.534
relative viability (LCLC-97TM1; first compound 0.253 µM): 0.399
relative viability (LCLC-97TM1; first compound 0.8 µM): 0.621
relative viability (LCLC-97TM1; first compound 2.53 µM): 0.294
relative viability (SW 1573; first compound 0.08 µM): 1.16
relative viability (SW 1573; first compound 0.253 µM): 0.957
relative viability (SW 1573; first compound 0.8 µM): 0.83
relative viability (SW 1573; first compound 2.53 µM): 0.792
relative viability (NCI-H1395; first compound 0.08 µM): 1.11
relative viability (NCI-H1395; first compound 0.253 µM): 1.33
relative viability (NCI-H1395; first compound 0.8 µM): 1.2
relative viability (NCI-H1395; first compound 2.53 µM): 1.16
relative viability (NCI-H2009; first compound 0.08 µM): 1.17
relative viability (NCI-H2009; first compound 0.253 µM): 1.12
relative viability (NCI-H2009; first compound 0.8 µM): 1.13
relative viability (NCI-H2009; first compound 2.53 µM): 1.06
relative viability (HCC-44; first compound 0.08 µM): 1.01
relative viability (HCC-44; first compound 0.253 µM): 0.945
relative viability (HCC-44; first compound 0.8 µM): 0.948
relative viability (HCC-44; first compound 2.53 µM): 0.899
relative viability (HCC-366; first compound 0.08 µM): 1.12
relative viability (HCC-366; first compound 0.253 µM): 1.09
relative viability (HCC-366; first compound 0.8 µM): 1.05
relative viability (HCC-366; first compound 2.53 µM): 0.942
relative viability (NCI-H1993; first compound 0.8 µM): 0.698
relative viability (NCI-H1993; first compound 2.53 µM): 0.787
relative viability (HCC-827; first compound 0.08 µM): 1.02
relative viability (HCC-827; first compound 0.253 µM): 1.02
relative viability (HCC-827; first compound 0.8 µM): 0.975
relative viability (HCC-827; first compound 2.53 µM): 1.04

C=C1C(=O)O[C@@H](CCCCCCCC)[C@@H]1C(=O)O [C-75] + CC1(C)CCC(c2ccc(Cl)cc2)=C(CN2CCN(c3ccc(C(=O)NS(=O)(=O)c4ccc(N[C@H](CCN5CCOCC5)CSc5ccccc5)c(S(=O)(=O)C(F)(F)F)c4)cc3)CC2)C1 [Navitoclax] (partner 0.5 µM)
relative viability (SK-MES-1; first compound 0.08 µM): 1.31
relative viability (SK-MES-1; first compound 0.253 µM): 1.23
relative viability (SK-MES-1; first compound 0.8 µM): 1.16
relative viability (SK-MES-1; first compound 2.53 µM): 1.21
relative viability (SK-MES-1; first compound 8 µM): 1.17
relative viability (RERF-LC-KJ; first compound 0.08 µM): 0.91
relative viability (RERF-LC-KJ; first compound 0.253 µM): 1.47
relative viability (RERF-LC-KJ; first compound 0.8 µM): 0.881
relative viability (RERF-LC-KJ; first compound 2.53 µM): 0.843
relative viability (RERF-LC-KJ; first compound 8 µM): 0.802
relative viability (NCI-H1792; first compound 0.08 µM): 0.595
relative viability (NCI-H1792; first compound 0.253 µM): 0.575
relative viability (NCI-H1792; first compound 0.8 µM): 0.46
relative viability (NCI-H1792; first compound 2.53 µM): 0.303
relative viability (NCI-H1792; first compound 8 µM): 0.59
relative viability (EPLC-272H; first compound 0.08 µM): 1.22
relative viability (EPLC-272H; first compound 0.253 µM): 1.03
relative viability (EPLC-272H; first compound 0.8 µM): 1.21
relative viability (EPLC-272H; first compound 2.53 µM): 0.856
relative viability (EPLC-272H; first compound 8 µM): 0.961
relative viability (NCI-H596; first compound 0.08 µM): 0.961
relative viability (NCI-H596; first compound 0.253 µM): 1.16
relative viability (NCI-H596; first compound 0.8 µM): 0.901
relative viability (NCI-H596; first compound 2.53 µM): 0.771
relative viability (NCI-H596; first compound 8 µM): 0.897
relative viability (HCC-15; first compound 0.08 µM): 0.692
relative viability (HCC-15; first compound 0.253 µM): 0.725
relative viability (HCC-15; first compound 0.8 µM): 0.686
relative viability (HCC-15; first compound 2.53 µM): 0.59
relative viability (HCC-15; first compound 8 µM): 0.733
relative viability (HCC-78; first compound 0.08 µM): 0.791
relative viability (HCC-78; first compound 0.253 µM): 0.834
relative viability (HCC-78; first compound 0.8 µM): 0.75
relative viability (HCC-78; first compound 2.53 µM): 0.708
relative viability (HCC-78; first compound 8 µM): 0.864
relative viability (NCI-H647; first compound 0.08 µM): 1.12
relative viability (NCI-H647; first compound 0.253 µM): 1.05
relative viability (NCI-H647; first compound 2.53 µM): 0.875
relative viability (NCI-H647; first compound 8 µM): 0.857
relative viability (COR-L 105; first compound 0.08 µM): 0.81
relative viability (COR-L 105; first compound 0.253 µM): 0.828
relative viability (COR-L 105; first compound 0.8 µM): 0.573
relative viability (COR-L 105; first compound 2.53 µM): 0.788
relative viability (COR-L 105; first compound 8 µM): 0.562
relative viability (LCLC-97TM1; first compound 0.08 µM): 0.36
relative viability (LCLC-97TM1; first compound 0.253 µM): 0.697
relative viability (LCLC-97TM1; first compound 0.8 µM): 0.357
relative viability (LCLC-97TM1; first compound 2.53 µM): 0.304
relative viability (LCLC-97TM1; first compound 8 µM): 0.292
relative viability (SW 1573; first compound 0.08 µM): 1.01
relative viability (SW 1573; first compound 0.253 µM): 0.969
relative viability (SW 1573; first compound 0.8 µM): 1.21
relative viability (SW 1573; first compound 2.53 µM): 1.06
relative viability (SW 1573; first compound 8 µM): 0.875
relative viability (NCI-H1395; first compound 0.08 µM): 1.13
relative viability (NCI-H1395; first compound 0.253 µM): 1.24
relative viability (NCI-H1395; first compound 0.8 µM): 0.989
relative viability (NCI-H1395; first compound 2.53 µM): 0.813
relative viability (NCI-H1395; first compound 8 µM): 1.26
relative viability (NCI-H2009; first compound 0.08 µM): 1.16
relative viability (NCI-H2009; first compound 0.253 µM): 1.08
relative viability (NCI-H2009; first compound 0.8 µM): 1.1
relative viability (NCI-H2009; first compound 2.53 µM): 0.971
relative viability (NCI-H2009; first compound 8 µM): 0.946
relative viability (HCC-44; first compound 0.08 µM): 0.972
relative viability (HCC-44; first compound 0.253 µM): 0.959
relative viability (HCC-44; first compound 0.8 µM): 0.905
relative viability (HCC-44; first compound 2.53 µM): 0.791
relative viability (HCC-44; first compound 8 µM): 1.02
relative viability (HCC-366; first compound 0.08 µM): 1.03
relative viability (HCC-366; first compound 0.253 µM): 1.1
relative viability (HCC-366; first compound 0.8 µM): 0.943
relative viability (HCC-366; first compound 8 µM): 0.833
relative viability (NCI-H1993; first compound 0.08 µM): 1.03
relative viability (NCI-H1993; first compound 0.253 µM): 0.944
relative viability (NCI-H1993; first compound 0.8 µM): 0.995
relative viability (NCI-H1993; first compound 2.53 µM): 0.938
relative viability (NCI-H1993; first compound 8 µM): 1.11
relative viability (HCC-827; first compound 0.08 µM): 1.02
relative viability (HCC-827; first compound 0.253 µM): 0.884
relative viability (HCC-827; first compound 0.8 µM): 0.952
relative viability (HCC-827; first compound 2.53 µM): 0.985
relative viability (HCC-827; first compound 8 µM): 1.04
